Values of other authors in patent US6468469B2, “Reuse determination for high level disinfectant” (Metrex Research Corporation, priority 2000, dated 2002).

Test system: M. tuberculosis
Conditions: alone at a concentration of up to 7.5%

## OO [hydrogen peroxide]
  kill of M. tuberculosis: does not kill
